Experimental data published in patent publication US20090042883A1, “ANTITUMOR AGENT” (KYOWA HAKKOKOGYO CO., priority 2005, published 2009).

How the values were obtained:
Type in all cases: cell-based
[1] = test system: human acute myelocytic leukemia MV4; 11 cells; experiment: Growth inhibition test on human acute myelocytic leukemia MV4; 11 cells (WST-1, % viability); conditions: test compound 10 μmol/L, cells without test compound = 100%
Method: (§1) Ten thousand cells of human acute myelocytic leukemia MV4; 11 were inoculated into each well of a 96-well microplate (manufactured by Nunc Corp.), and using IMDM medium (culture medium) containing 10% FCS, preculturing was performed in a 5% carbon dioxide incubator at 37° C. for 24 hours. A DMSO solution of each test compound prepared in a concentration of 10 mmol/L was diluted with the culture medium to a final concentration of 10 μmol/L, and the diluted solution was added to each well. The individual wells were further cultured in the 5% carbon dioxide incubator at 37° C. for 72 hours. After completion of the culturing, 10 μL of WST-1 labeled mixture (manufactured by Roche Diagnostic Corp.) was added to each well, and culturing was performed in the 5% carbon dioxide incubator at 37° C. for 1 hour. Using a microplate spectrophotometer (SpectraMax 340PC384; manufactured by Nihon Molecular Devices), the absorbance of each well was measured at 450 nm and 655 nm. The value obtained by subtracting the absorbance at 450 nm from the absorbance at 655 nm (absorbance difference) was calculated for each well. The value for cells not incorporated with a test compound was designated as 100%, and the value at a well not containing cells was designated as 0%. By comparing these values with the absorbance difference obtained at the well in which each test compound was added, the cell viability (% viability) after treatment with the test compound was calculated.

[2] = test system: human prostate cancer 22Rv1 cells; experiment: Growth inhibition test on human prostate cancer 22Rv1 cells (WST-1, % viability); conditions: test compound 10 μmol/L, 72 hours, cells without test compound = 100%
Method: as §1, with “Five” for “Ten”, “prostate cancer 22Rv1” for “acute myelocytic leukemia MV4; 11”, “RPMI1640” for “IMDM”, “2 hours.” for “1 hour.”, “(Model 550;” for “(SpectraMax 340PC384;”, “Bio-Rad),” for “Nihon Molecular Devices),”

[3] = test system: human lung cancer NCI-H596 cells; experiment: Growth inhibition test on human lung cancer NCI-H596 cells (WST-1, % viability); conditions: test compound 10 μmol/L, cells without test compound = 100%
Method: as §1, with “Four” for “Ten”, “lung cancer NCI-H596” for “acute myelocytic leukemia MV4; 11”, “RPMI1640” for “IMDM”, “2 hours.” for “1 hour.”, “(Model 550;” for “(SpectraMax 340PC384;”, “Bio-Rad),” for “Nihon Molecular Devices),”

[4] = test system: human multiple myeloma NCI-H929 cells; experiment: Growth inhibition test on human multiple myeloma NCI-H929 cells (WST-1, % viability); conditions: test compound 10 μmol/L, cells without test compound = 100%
Method: as §1, with “multiple myeloma NCI-H929” for “acute myelocytic leukemia MV4; 11”, “RPMI” for “IMDM”, “2 hours.” for “1 hour.”

[5] = test system: human chronic lymphocytic leukemia-derived MEC-1 cells; experiment: Growth inhibition test on human chronic lymphocytic leukemia-derived MEC-1 cells (WST-1, % viability); conditions: test compound 10 μmol/L, 72 hours, cells without test compound = 100%
Method: Ten thousand cells of human chronic lymphocytic leukemia-derived MEC-1 were inoculated into each well of a 96-well microplate (manufactured by Nunc Corp.), and using RPMI1640 medium (culture medium) containing 10% FCS, preculturing was performed in a 5% carbon dioxide incubator at 37° C. for 1 hour. A DMSO solution of each test compound prepared in a concentration of 10 mmol/L was diluted with the culture medium to a final concentration of 10 μmol/L, and the diluted solution was added to each well. The individual wells were further cultured in the 5% carbon dioxide incubator at 37° C. for 72 hours. After completion of the culturing, 10 μL of WST-1 labeled mixture (manufactured by Roche Diagnostic Corp.) was added to each well, and culturing was performed in the 5% carbon dioxide incubator at 37° C. for 3 hours. Using a microplate spectrophotometer (M-SPmax 250; manufactured by Molecular Devices Corp.), the absorbance of each well was measured at 450 nm and 655 nm. The value obtained by subtracting the absorbance at 450 nm from the absorbance at 655 nm (absorbance difference) was calculated for each well. The value for cells not incorporated with a test compound was designated as 100%, and the value at a well not containing cells was designated as 0%. By comparing these values with the absorbance difference obtained at the well in which each test compound was added, the cell viability (% viability) after treatment with the test compound was calculated.

SMILES	Viability of tumor cells (% viability), Human acute myelocytic leukemia MV4; 11 cells [1] [%]	Viability of tumor cells (% viability), Human prostate cancer 22Rv1 cells [2] [%]	Viability of tumor cells (% viability), Human lung cancer NCI-H596 cells [3] [%]	Viability of tumor cells (% viability), Human multiple myeloma NCI-H929 cells [4] [%]	Viability of tumor cells (% viability), Human chronic lymphocytic leukemia MEC-1 cells [5] [%]
CCc1c(O)cc(O)c(C(=O)c2ccc(OC)c(OC)c2)c1CC(=O)N1CCN(c2ccccc2)CC1 [Compound 41]	0	5	12	0	4
CCc1c(O)cc(O)c(C(=O)c2ccc(OC(C)C)cc2)c1CC(=O)N(CCOC)CCN1CCOCC1 [Compound 134]	0	6	17	0	6
CCc1c(O)cc(O)c(C(=O)c2ccc(SC)cc2)c1CC(=O)N(CCO)CCOC [Compound 95]	0	5	14	0	4
CCc1c(O)cc(O)c(C(=O)c2ccc(OC)cc2)c1CC(=O)N1CCC(CO)CC1 [Compound 61]	0	5	25	0	5
CCc1c(O)cc(O)c(C(=O)c2ccc(OC)cc2)c1CC(=O)N1CCN(c2ncccn2)CC1 [Compound 32]	0	5	15	0	4
CCc1c(O)cc(O)c(C(=O)c2ccc(OC(F)(F)F)cc2)c1CC(=O)N(CCO)CCOC [Compound 88]	0	6	14	0	5
CCc1c(O)cc(O)c(C(=O)c2ccc(OC)cc2)c1CC(=O)N1CCN(c2ccccc2C#N)CC1 [Compound 17]	0	5	16	0	4
CCc1c(O)cc(O)c(C(=O)c2ccc(OC)cc2)c1CC(=O)N(CCO)CCO [Compound 13]	0	6	35	0	7
CCc1c(O)cc(O)c(C(=O)c2ccc(O)c(OC)c2)c1CC(=O)N(CCOC)CCOC [Compound 106]	0	5	12	0	4
CCc1c(O)cc(O)c(C(=O)c2ccc(OC)cc2)c1CC(=O)N1CCc2cc(OC)c(OC)cc2C1 [Compound 38]	0	4	15	0	4
CCc1c(O)cc(O)c(C(=O)c2ccc(C(F)(F)F)cc2)c1CC(=O)N(CCO)CCOC [Compound 144]	0	5	14	0	4
CCc1c(O)cc(O)c(C(=O)c2ccc(OCCCN3CCOCC3)c(OC)c2)c1CC(=O)N(CCOC)CCOC [Compound 149]	0	4	14	0	5
CCc1c(O)cc(O)c(C(=O)c2ccc(OC(F)F)cc2)c1CC(=O)N(CCO)CCOC [Compound 91]	0	5	14	0	4
